Where “and” joins values, the source holds several entries; their conditions need not be identical. Equal entries are not always repeated.
Assays:
[1] = test system: PaTu-S cells; assay: Zebrafish embryo xenotransplantation: invasion and metastatic behaviour of pretreated PaTu-S cells; type: in vivo, human
Experimental: Zebrafish (Danio rerio) (Tuebingen line, AIB strain (Albinos) and Tg (fli1:eGFP) were handled in compliance with local animal care regulations and standard protocols of the Netherlands and Germany. Fish were kept at 28°C in aquaria with day/night light cycles (10 h dark versus 14 h light periods). The developing embryos were kept in an incubator at constant temperatures.
The selective RARα antagonist Ro-41-5253 was purchased from Biomol International, dissolved in DMSO and cells were treated overnight prior to injections at a final concentration of 200 nM (50% inhibition at 60nM)^14,15. Retinoic acid (ATRA, Sigma) was added to cells ON at a final concentration of 1 µM.
Cells were stained with CM-Dil (red fluorescence) at a 1:1000 dilution according to the manufacturers protocol (Vybrant, Invitrogen). Cells were suspended in 67% DPBS for injection into embryos. 2dpf zebrafish embryos were dechorionated and tranquilized with tricaine (Sigma). An injection needle (15µm diameter) with a manual injector (Eppendorf; Celltram Vario) was used to inject ∼200 cells into the yolk sac of 2dpf zebrafish embryos. On average 80 embryos were injected for each treatment and embryos with detectable cell scatter 2 h after the transfer (and therefore presumably due to the transfer procedure) were excluded from further analysis. Presence of cells was checked after 2 h incubation at 31°C and embryos were subsequently kept at 35°C. We defined metastasis based on the number of fluorescent cells that were detected outside the yolk sac 2 days after the transfer. Presence of 5 or more cells was considered "metastasised" and percentages of metastasised fish in each experiment were counted. The occurence of micro-metastasis is indicated by cell clusters of ≥4 cells presumably originating from cell division. PaTu-S cells and ASPC1 cells were transfected ON with indicated concentrations of miR-10a siRNA in the presence of ICA-Fectin TM442 (Eurogentec, Belgium). Whole cell lysates were prepared 36h post-transfection and 40 µg of total lysates were separated on 7.5% PAA-gels and blotted with anti E-cadherin, α-catenin, β-catenin (all mAbs, Transduction Labs) and actin antibodies (mAb Sigma-Aldrich, Germany).
Morpholino antisense oligonucleotides were obtained from Gene Tools, LLC (OR, USA) and used as previously described^19. The miR-10a antisense Morpholino sequence is: […]. Standard control Morpholino was […]. Both miR-10a and control Morpholinos were fluorescein labeled. The siRNAs for human HOXB1, human HOXB3 and human RARα were purchased from Santa Cruz Biotechnology (HOXB1: sc-38686, HOXB3: sc-38690 and RARα: sc-29465). EndoPorter (Gene Tools, LLC) was used to deliver Morpholinos and siRNAs into cells and efficiencies for Morpholinos were checked by fluorescence microscopy to be >98%. For the miR-10a siRNA, the sense strand corresponds to […]. The sequence of control siRNA (miR-196a) was […] with the corresponding antisense sequence). 30 µl of each siRNA oligo (50 µM) were annealed by gradually cooling from 98°C to 20°C in a volume of 75 µl annealing buffer (50 mM Tris, pH 7.8, 100 mM NaCl RNAse free). The effect of miR-10a Morpholinos on miR-10a function was tested with a sensor construct: pCS2+ EGFP 4x miR-10 AS containing 4 copies of a miR-10a antisense sequence.

[2] = test system: PaTu-T cells; assay: In vitro migration assay (scratch assay); type: cell-based, human; conditions: compared to DMSO control
Experimental: We used the selective RARα antagonist Ro-41-5253; to analyze its anti-migratory activity in an in vitro migration assay ("scratch assay") and in the zebrafish xenotransplantation model, respectively. […] Similar results were obtained when PaTu-T cells were treated with RAR -specific siRNAs (Supplemental Table 1 and Supplemental Fig. 1).
PaTu-T cells were incubated as indicated, with DMSO (Co), 200 nM Ro-41-5253 (RARα inh), control-Morpholino, miR-10a Morpholino, miR-196 siRNA (Co), or RARα siRNA and PaTu-S cells were co-incubated with 1 µM retinoic acid (RA) and control siRNA, RARα siRNA or Ro-415253 and miR-10a expression was evaluated by Northern blot analysis (A). […] RT-PCR control of GAPDH was used as a loading control (not shown). Dose response curves for RA and the RARα antagonist and the RT-PCR control for RARα siRNA treatment are shown in Supplemental Fig. 1. The effect of Ro-415253 on cell migration was analysed in an in vitro migration assay in PaTu-T cells. […] An actin re-blot confirmed equal loading.

[3] = Experiment 1, Day 1, number of embryos
[4] = Experiment 1, Day 2, number of embryos
[5] = Experiment 1, Day 3, number of embryos
[6] = Experiment 2, Day 1, number of embryos
[7] = Experiment 2, Day 2, number of embryos
[8] = Experiment 2, Day 3, number of embryos

CC1=C(/C=C/C(C)=C/C=C/C(C)=C/C(=O)O)C(C)(C)CCC1 [RA, all trans retinoic acid]
total >5 ([1]; Experiment 1, number of embryos (equals the Day 1 total)): 14 | Migration 5 to 20 [1, 3]: 11 | Migration <5 [1, 3]: 1 | Migration >20 [1, 3]: 3 | total >5 [1, 3]: 14 | Migration 5 to 20 [1, 4]: 10 | Migration <5 [1, 4]: 0 | Migration >20 [1, 4]: 4 | total >5 [1, 4]: 14 | Migration 5 to 20 [1, 5]: 19 | Migration <5 [1, 5]: 0 | Migration >20 [1, 5]: 3 | total >5 [1, 5]: 12 | total >5 ([1]; Experiment 1, summary line, percentage in brackets (of embryos alive)): 24.1% | total >5 ([1]; Experiment 2, number of embryos (equals the Day 1 total)): 20 | Migration 5 to 20 [1, 6]: 15 | Migration <5 [1, 6]: 1 | Migration >20 [1, 6]: 5 | total >5 [1, 6]: 20 | Migration 5 to 20 [1, 7]: 13 | Migration <5 [1, 7]: 1 | Migration >20 [1, 7]: 4 | total >5 [1, 7]: 17 | Migration 5 to 20 [1, 8]: 12 | Migration <5 [1, 8]: 1 | Migration >20 [1, 8]: 5 | total >5 [1, 8]: 17 | total >5 ([1]; Experiment 2, summary line, percentage in brackets (of embryos alive)): 31.2% | Average % (observed metastasised embryos) ([1]; Table 1, pretreated PaTu-S cells transplanted into zebrafish embryos, average of 2-4 experiments): 27.7% | %migration, Average ([1]; average of experiments, PaTu-S): 27.7% | %migration ([1]; single experiments, PaTu-S): 24.1% and 31.2%

CCCCCCCOc1cc2c(cc1/C(C)=C/c1ccc(C(=O)O)cc1)C(C)(C)CCS2(=O)=O [Ro-41-5253, Benzoic acid, 4-(2-(7-(heptyloxy)-3,4-dihydro-4,4-dimethyl-2H-1-benzothiopyran-6-yl)-1-propenyl)-, S,S-dioxide, (E)]
cell migration [2]: significant inhibition | cell migration ([2]; listed as RARα antagonist): significantly decreased
